From patent US20180002288A1, “USE OF PICOLINAMIDES AS FUNGICIDES” (DOW AGROSCIENCES LLC, priority 2014, published 2018)
Like-named read-outs stand apart in the source and are kept apart here.

What was measured:
Puccinia triticina = assay: Wheat Brown Rust fungicidal activity (PUCCRT); format: in vivo; conditions: for pest or weed control at 121.5 g/ha: Low Volume Cereal Activity at 121.5 g/Ha; for pest or weed control at 100 ppm: wheat, high volume
Experimental: All fungicides were evaluated using the aforementioned method for their activity vs. all target diseases, unless stated otherwise. Wheat leaf blotch and brown rust activity were also evaluated using track spray applications, in which case the fungicides were formulated as EC formulations, containing 0.1% Trycol 5941 in the spray solutions. Wheat plants (variety Yuma) were grown from seed in a greenhouse in 50% mineral soil/50% soil-less Metro mix until the first leaf was fully emerged, with 7-10 seedlings per pot. These plants were inoculated with an aqueous spore suspension of Zymoseptoria tritici either prior to or after fungicide treatments. After inoculation the plants were kept in 100% relative humidity (one day in a dark dew chamber followed by two to three days in a lighted dew chamber at 20° C.) to permit spores to germinate and infect the leaf. The plants were then transferred to a greenhouse set at 20° C. for disease to develop. When disease symptoms were fully expressed on the 1st leaves of untreated plants, infection levels were assessed on a scale of 0 to 100 percent disease severity. Percent disease control was calculated using the ratio of disease severity on treated plants relative to untreated plants. Wheat plants (variety Yuma) were grown from seed in a greenhouse in 50% mineral soil/50% soil-less Metro mix until the first leaf was fully emerged, with 7-10 seedlings per pot. These plants were inoculated with an aqueous spore suspension of Puccinia triticina either prior to or after fungicide treatments. […] The plants were then transferred to a greenhouse set at 24° C. for disease to develop. Fungicide formulation, application and disease assessment followed the procedures as described in the Example A.

Zymoseptoria tritici = assay: Leaf Blotch of Wheat fungicidal activity (SEPTTR); format: in vivo; conditions: for pest or weed control at 121.5 g/ha: Low Volume Cereal Activity at 121.5 g/Ha; for pest or weed control at 100 ppm: wheat, high volume
Experimental: All fungicides were evaluated using the aforementioned method for their activity vs. all target diseases, unless stated otherwise. Wheat leaf blotch and brown rust activity were also evaluated using track spray applications, in which case the fungicides were formulated as EC formulations, containing 0.1% Trycol 5941 in the spray solutions. Wheat plants (variety Yuma) were grown from seed in a greenhouse in 50% mineral soil/50% soil-less Metro mix until the first leaf was fully emerged, with 7-10 seedlings per pot. These plants were inoculated with an aqueous spore suspension of Zymoseptoria tritici either prior to or after fungicide treatments. After inoculation the plants were kept in 100% relative humidity (one day in a dark dew chamber followed by two to three days in a lighted dew chamber at 20° C.) to permit spores to germinate and infect the leaf. The plants were then transferred to a greenhouse set at 20° C. for disease to develop. When disease symptoms were fully expressed on the 1st leaves of untreated plants, infection levels were assessed on a scale of 0 to 100 percent disease severity. Percent disease control was calculated using the ratio of disease severity on treated plants relative to untreated plants.

[1] = 24 h, 1 Day Protectant, read-out: PUCCRT 1DP (Wheat Brown Rust, 1 Day Protectant)
[2] = 72 h, 3 Day Curative, read-out: PUCCRT 3DC (Wheat Brown Rust, 3 Day Curative)
[3] = 24 h, 1 Day Protectant, read-out: SEPTTR 1DP (Wheat Leaf Blotch, 1 Day Protectant)
[4] = 72 h, 3 Day Curative, read-out: SEPTTR 3DC (Wheat Leaf Blotch, 3 Day Curative)
[5] = 24 h, 1 Day Protectant, read-out: PUCCRT 1DP % Control rating
[6] = 72 h, 3 Day Curative, read-out: PUCCRT 3DC % Control rating
[7] = 24 h, 1 Day Protectant, read-out: SEPTTR 1DP % Control rating
[8] = 72 h, 3 Day Curative, read-out: SEPTTR 3DC % Control rating

Structure (SMILES)	pest or weed control at 121.5 g/ha (Puccinia triticina; [1])	pest or weed control at 121.5 g/ha (Puccinia triticina; [2])	pest or weed control at 121.5 g/ha (Zymoseptoria tritici; [3])	pest or weed control at 121.5 g/ha (Zymoseptoria tritici; [4])	pest or weed control at 100 ppm (Puccinia triticina; [5])	pest or weed control at 100 ppm (Puccinia triticina; [6])	pest or weed control at 100 ppm (Zymoseptoria tritici; [7])	pest or weed control at 100 ppm (Zymoseptoria tritici; [8])
COc1ccnc(C(=O)N[C@@H](C)C(=O)O[C@@H](C)[C@H](Oc2cc(F)ccc2F)c2ccccc2)c1OCOC(C)=O [Example 191]	> 80%	> 80%	< 0%	< 80%	–	–	–	–
COc1ccnc(C(=O)N[C@@H](C)C(=O)O[C@@H](C)[C@H](OC)c2ccccc2)c1OC(C)=O [Example 231]	< 0%	> 80%	< 0%	> 80%	–	–	–	–
CCCO[C@H](c1ccccc1)[C@H](C)OC(=O)[C@H](C)NC(=O)c1nccc(OC)c1O [Example 137]	–	–	–	–	> 80%	> 80%	> 80%	> 80%
COc1ccnc(C(=O)N[C@@H](C)C(=O)O[C@@H](C)C(Oc2ccccc2)c2nccs2)c1OCOC(C)=O (some centres unmarked) [Example 213]	> 80%	> 80%	< 0%	< 80%	–	–	–	–
COc1ccnc(C(=O)N[C@@H](C)C(=O)O[C@@H](C)[C@@H](OCC(C)C)c2ccccc2)c1OC(C)=O [Example 224]	> 80%	> 80%	< 80%	< 80%	–	–	–	–
COc1ccnc(C(=O)N[C@@H](C)C(=O)O[C@@H](C)[C@@H](Oc2ccc(Cl)cc2Cl)c2ccccc2)c1OC(=O)C(C)C [Example 215]	< 80%	< 80%	< 80%	< 80%	–	–	–	–
COc1ccnc(C(=O)N[C@@H](C)C(=O)O[C@@H](C)[C@@H](Oc2ccccc2)c2cccs2)c1O [Example 129]	–	–	–	–	< 80%	< 80%	> 80%	< 80%
COc1ccnc(C(=O)N[C@@H](C)C(=O)O[C@@H](C)[C@@H](Oc2ccccc2)c2ccccc2)c1OCOC(C)=O [Example 219]	> 80%	> 80%	> 80%	> 80%	–	–	–	–
COc1ccnc(C(=O)N[C@@H](C)C(=O)O[C@@H](C)[C@H](Oc2ccc(Cl)cc2)c2ccccc2)c1OCOC(C)=O [Example 201]	> 80%	> 80%	> 80%	> 80%	–	–	–	–
COc1ccnc(C(=O)N[C@@H](C)C(=O)O[C@@H](C)[C@H](Oc2ccc(F)cc2)c2ccc(F)cc2)c1OCOC(C)=O [Example 254]	> 80%	> 80%	> 80%	> 80%	–	–	–	–
COc1ccnc(C(=O)N[C@@H](C)C(=O)O[C@@H](C)[C@H](Oc2ccccc2)c2cccc(-c3ccccc3)c2)c1O [Example 145]	–	–	–	–	> 80%	< 80%	> 80%	> 80%
COc1ccnc(C(=O)N[C@@H](C)C(=O)O[C@@H](C)[C@H](Oc2ccc(Cl)cc2)c2ccccc2)c1O [Example 119]	–	–	–	–	> 80%	> 80%	< 80%	> 80%
CCCO[C@@H](c1ccccc1)[C@H](C)OC(=O)[C@H](C)NC(=O)c1nccc(OC)c1O [Example 138]	–	–	–	–	> 80%	> 80%	< 80%	< 80%
COc1ccnc(C(=O)N[C@@H](C)C(=O)O[C@@H](C)[C@@H](Oc2ccc(Cl)cc2Cl)c2ccccc2)c1OCOC(C)=O [Example 216]	> 80%	< 80%	> 80%	> 80%	–	–	–	–
COc1ccnc(C(=O)N[C@@H](C)C(=O)O[C@@H](C)[C@H](Oc2ccc(C)cc2)c2ccc(F)cc2)c1O [Example 152]	–	–	–	–	> 80%	> 80%	> 80%	> 80%
COc1ccnc(C(=O)N[C@@H](C)C(=O)O[C@@H](C)[C@H](Oc2ccc(C)cc2Cl)c2ccccc2)c1OC(C)=O [Example 243]	> 80%	< 80%	> 80%	> 80%	–	–	–	–
CC[C@H](NC(=O)c1nccc(OC)c1OCOC(C)=O)C(=O)O[C@@H](C)[C@H](Oc1cc(F)ccc1F)c1ccccc1 [Example 193]	> 80%	> 80%	< 80%	< 0%	–	–	–	–
CC[C@H](NC(=O)c1nccc(OC)c1OC(C)=O)C(=O)O[C@@H](C)[C@H](Oc1cc(F)ccc1F)c1ccccc1 [Example 194]	> 80%	< 80%	< 80%	< 0%	–	–	–	–
CC[C@H](NC(=O)c1nccc(OC)c1OCOC(C)=O)C(=O)O[C@@H](C)[C@H](Oc1cc(F)cc(Cl)c1)c1ccccc1 [Example 208]	> 80%	< 80%	> 80%	> 80%	–	–	–	–
COc1ccnc(C(=O)N[C@@H](C)C(=O)O[C@@H](C)[C@H](Oc2ccc(C)cc2)c2ccc(F)cc2)c1OCOC(C)=O [Example 249]	> 80%	> 80%	> 80%	> 80%	–	–	–	–
COc1ccnc(C(=O)N[C@@H](C)C(=O)O[C@@H](C)[C@H](Oc2ccc(C)cc2Cl)c2ccc(F)cc2)c1O [Example 150]	–	–	–	–	> 80%	> 80%	> 80%	< 80%
COc1ccnc(C(=O)N[C@@H](C)C(=O)O[C@@H](C)[C@H](Oc2ccc(Cl)cc2Cl)c2ccccc2)c1OC(C)=O [Example 200]	> 80%	< 80%	> 80%	> 80%	–	–	–	–
COc1ccnc(C(=O)N[C@H](C)C(=O)O[C@H](C)[C@@H](Oc2ccccc2)c2ccccc2)c1O [Example 116]	–	–	–	–	< 0%	< 0%	< 0%	< 80%
COc1ccnc(C(=O)N[C@@H](C)C(=O)O[C@@H](C)[C@H](Oc2ccccc2)c2ccc(F)cc2F)c1OC(C)=O [Example 251]	> 80%	> 80%	> 80%	> 80%	–	–	–	–
COc1ccnc(C(=O)N[C@@H](C)C(=O)O[C@@H](C)[C@@H](OCC(C)C)c2ccccc2)c1OCOC(C)=O [Example 226]	> 80%	> 80%	< 80%	< 80%	–	–	–	–
COc1ccnc(C(=O)N[C@@H](C)C(=O)O[C@@H](C)[C@H](Oc2ccc(Cl)cc2Cl)c2ccccc2)c1O [Example 120]	–	–	–	–	> 80%	< 80%	> 80%	< 80%
